Measured values published in patent US4543353A, “Ester and amide derivatives of 13,14-didehydro prostaglandins” (Farmitalia Carlo Erba S.p.A., priority 1981, dated 1985).

Columns and labels:
[1] = duration of activity when administered orally; assay type: in vivo
hamster = assay: luteolytic activity in the hamster after subcutaneous injection; assay type: in vivo; conditions: Mesocricetus auratus, sc, according to A. B. Labhsetwar, Nature, vol. 230, page 528 (1971)
Method: In this application, the compounds are administered either by intravenous infusion at a dose of approximately 0.01-0.05 μg/kg/minute until the end of labor, or by mouth at a single or multiple doses from about 0.05 mg to about 5 mg pro dose. […] For example, the luteolytic activity of the compound 5c-9α,11α,15(S)-trihydroxy-18,19,20-trinor-17-cyclohexyl-prost-5-en-13-ynoic acid 2-ethoxy-ethyl ester, expressed as ED50 value and evaluated in the hamster after subcutaneous injection [according to A. B. LABHSETWAR, Nature, vol.

[2] = orientative acute toxicity, LD50, single oral administration; conditions: mouse, in vivo, mice, nine hours food deprived, assessed on the seventh day
Method: The evaluation of the toxicity (as orientative acute toxicity, i.e. LD50) was carried out, e.g., as follows: nine hours food deprived mice were treated orally with single administration of increasing doses, then housed and normally fed; the LD50 was assessed on the seventh day after the treatment.

CCOCCOC(=O)CCC/C=C\C[C@@H]1[C@@H](C#C[C@@H](O)CC2CCCCC2)[C@H](O)C[C@@H]1O [5c-9α,11α,15(S)-trihydroxy-17,18,19,20-tetranor-16-cyclohexyl-prost-5-en-13-ynoic acid 2-ethoxy-ethyl ester]
activity duration compared with the parent acid or alkyl ester derivatives [1]: more lasting activity

CCOCCOC(=O)CCC/C=C\C[C@@H]1[C@@H](C#C[C@@H](O)CCC2CCCCC2)[C@H](O)C[C@@H]1O [5c-9α,11α,15(S)-trihydroxy-18,19,20-trinor-17-cyclohexyl-prost-5-en-13-ynoic acid 2-ethoxy-ethyl ester]
ED50 (hamster): 0.005 mg/kg

COC(=O)CCC/C=C\C[C@@H]1[C@@H](C#C[C@@H](O)CCC2CCCCC2)[C@H](O)C[C@@H]1O [5c-9α,11α,15(S)-trihydroxy-18,19,20-trinor-17-cyclohexyl-prost-5-en-13-ynoic acid methyl ester, reference compound]
ED50 (hamster): 0.009 mg/kg

CCOCCOC(=O)CCC/C=C\C[C@@H]1[C@@H](C#C[C@@H](O)CCCCC2CCCCC2)[C@H](O)C[C@@H]1O [5c-9α,11α,15(S)-trihydroxy-20-nor-19-cyclohexyl-prost-5-en-13-ynoic acid 2-ethoxy-ethyl ester]
LD50 at 168 h [2]: > 3000 mg/kg
activity duration compared with the parent acid or alkyl ester derivatives [1]: more lasting activity
